Active and inactive are the calls of the source. No cut-off for these calls is given here.
How the values were obtained:
[1] = system: Acinetobacter baumannii; assay: Antibacterial activity against Acinetobacter baumannii AB5075 assessed as reduction in microbial growth incubated for 16 hrs by broth microdilution method; type: functional
[2] = system: Acinetobacter baumannii; assay: Potentiation of clarithromycin-induced antibacterial activity against Acinetobacter baumannii AB5075 assessed as fold reduction in clarithromycin MIC at 30 uM incubated for 16 hrs in presence of clarithromycin by broth microdilution method; type: functional
[3] = system: Acinetobacter baumannii; assay: Potentiation of clarithromycin-induced antibacterial activity against Acinetobacter baumannii AB5075 assessed as clarithromycin MIC at 20 uM incubated for 16 hrs by broth microdilution method (reference value: […] ug/ml); type: functional
[4] = system: Acinetobacter baumannii; assay: Potentiation of clarithromycin-induced antibacterial activity against Acinetobacter baumannii AB5075 assessed as clarithromycin MIC at 10 uM incubated for 16 hrs by broth microdilution method (reference value: […] ug/ml); type: functional
[5] = system: Acinetobacter baumannii; assay: Potentiation of clarithromycin-induced antibacterial activity against Acinetobacter baumannii AB5075 assessed as clarithromycin MIC at 7.5 uM incubated for 16 hrs by broth microdilution method (reference value: […] ug/ml); type: functional
[6] = system: Acinetobacter baumannii; assay: Potentiation of clarithromycin-induced antibacterial activity against Acinetobacter baumannii AB5075 assessed as fold reduction in clarithromycin MIC at 7.5 uM incubated for 16 hrs in presence of clarithromycin broth microdilution method; type: functional
[7] = system: Acinetobacter baumannii; assay: Potentiation of clarithromycin-induced antibacterial activity against Acinetobacter baumannii AB5075 assessed as clarithromycin MIC at 15 uM incubated for 16 hrs by broth microdilution method (reference value: […] ug/ml); type: functional
[8] = system: Acinetobacter baumannii; assay: Potentiation of clarithromycin-induced antibacterial activity against Acinetobacter baumannii AB5075 assessed as fold reduction in clarithromycin MIC at 10 uM incubated for 16 hrs in presence of clarithromycin by broth microdilution method; type: functional
[9] = system: Acinetobacter baumannii; assay: Potentiation of clarithromycin-induced antibacterial activity against Acinetobacter baumannii AB5075 assessed as clarithromycin MIC at […] incubated for 16 hrs by broth microdilution method (reference value: […] ug/ml); type: functional; details: dose 30 µM
[10] = system: Acinetobacter baumannii; assay: Potentiation of clarithromycin-induced antibacterial activity against Acinetobacter baumannii AB5075 assessed as fold reduction in clarithromycin MIC at 20 uM incubated for 16 hrs in presence of clarithromycin by broth microdilution method; type: functional
[11] = system: Acinetobacter baumannii; assay: Potentiation of clarithromycin-induced antibacterial activity against Acinetobacter baumannii AB5075 assessed as fold reduction in clarithromycin MIC at 5 uM incubated for 16 hrs in presence of clarithromycin by broth microdilution method; type: functional
[12] = system: Acinetobacter baumannii; assay: Potentiation of clarithromycin-induced antibacterial activity against Acinetobacter baumannii AB5075 assessed as clarithromycin MIC at 5 uM incubated for 16 hrs by broth microdilution method (reference value: […] ug/ml); type: functional
[13] = system: Acinetobacter baumannii; assay: Potentiation of Colistin-induced Acinetobacter baumannii AB5075 assessed as Colistin MIC at 30 uM by broth microdilution method; type: functional, organism-based
[14] = system: Acinetobacter baumannii; assay: Potentiation of clarithromycin-induced antibacterial activity against Acinetobacter baumannii AB5075 assessed as clarithromycin MIC at 25 uM incubated for 16 hrs by broth microdilution method (reference value: […] ug/ml); type: functional

| Compound | MIC [1] | fold change (FC) [2] | MIC [3] | MIC [4] | further results |
| --- | --- | --- | --- | --- | --- |
| Cl.Nc1ncc(-c2ccc(NC(=O)c3ccc(Cl)c(Cl)c3)cc2)[nH]1 | 100 µM | 64 | 0.5 µM | 4 µM |  |
| Cl.Nc1nc(-c2ccc(NC(=O)c3ccc(Cl)c(C(F)(F)F)c3)cc2F)c[nH]1 | 50 µM |  |  | 2 µg/mL | MIC [5]: 8 µg/mL; fold change (FC) [6]: 4; MIC [7]: 0.25 µg/mL; fold change (FC) [8]: 16 |
| Cl.Nc1nc(-c2ccc(NC(=O)c3cc(Cl)cc(Cl)c3)c(F)c2)c[nH]1 | > 200 µM | 4 |  |  | MIC [9]: 16 µg/mL |
| Nc1nc(-c2ccc(NC(=O)c3c(F)c(F)c(F)c(F)c3F)cc2)c[nH]1 | ≥ 200 µM |  |  |  |  |
| Nc1nc(-c2ccc(NC(=O)c3ccc(Cl)c(C(F)(F)F)c3)cc2)c[nH]1 | 100 µM |  |  | 2 µM |  |
| Cl.Nc1nc(-c2ccc(NC(=O)c3cc(Cl)cc(Cl)c3)cc2Cl)c[nH]1 | > 200 µM | 64 | 0.5 µg/mL | 8 µg/mL | MIC [9]: 0.5 µg/mL; fold change (FC) [10]: 64; fold change (FC) [8]: 4 |
| Cl.Nc1nc(-c2c(F)cc(NC(=O)c3cc(Cl)cc(Cl)c3)cc2F)c[nH]1 |  |  | 8 µg/mL |  | MIC [9]: 4 µg/mL; fold change (FC) [8]: 2 |
| Cc1cc(-c2c[nH]c(N)n2)ccc1NC(=O)c1cc(Cl)cc(Cl)c1.Cl | > 200 µM | 64 | 1 µg/mL | 16 µg/mL | fold change (FC) [10]: 32; fold change (FC) [8]: 2 |
| Nc1nc(-c2ccc(NC(=O)c3ccccc3)cc2)c[nH]1 | ≥ 200 µM |  |  |  |  |
| Cl.Nc1nc(-c2ccc(NC(=O)Nc3ccc(Cl)c(Cl)c3)cc2)c[nH]1 | 100 µM | >=512 | 0.0625 µg/mL | 0.25 µg/mL | MIC [9]: 0.0625 µg/mL; fold change (FC) [11]: 4; MIC [5]: 2 µg/mL; fold change (FC) [6]: 16; fold change (FC) [10]: >=512; MIC [7]: 0.125 µg/mL; MIC [12]: 8 µg/mL |
| COc1cc(-c2c[nH]c(N)n2)ccc1NC(=O)c1cc(Cl)cc(Cl)c1.Cl | 100 µM | 64 | 4 µg/mL | 16 µg/mL | MIC [9]: 0.5 µg/mL; fold change (FC) [10]: 8; fold change (FC) [8]: 2 |
| Cl.Nc1nc(-c2ccc(NC(=O)c3cc(Cl)cc(Cl)c3)cc2F)c[nH]1 | > 200 µM | 128 | 0.25 µg/mL | 0.5 µg/mL | MIC [9]: 0.5 µg/mL; fold change (FC) [11]: 4; MIC [5]: 4 µg/mL; fold change (FC) [6]: 8; fold change (FC) [8]: 64; MIC [12]: 8 µg/mL |
| Nc1nc(-c2ccc(NC(=O)c3ccc(Br)cc3)cc2)c[nH]1 | ≥ 200 µM |  |  |  | Activity [13]: inactive |
| Cl.Nc1nc(-c2ccc(NC(=O)Nc3cc(Cl)cc(Cl)c3)cc2)c[nH]1 | 25 µM |  |  |  | fold change (FC) [11]: 4; MIC [5]: 0.5 µg/mL; fold change (FC) [6]: 64; MIC [12]: 8 µg/mL |
| Nc1ncc(-c2ccc(NC(=O)c3cc(I)c(I)c(I)c3)cc2)[nH]1 | ≥ 200 µM |  |  |  |  |
| Cl.Nc1nc(-c2ccc(NC(=O)c3cc(Cl)cc(Cl)c3)c(Cl)c2)c[nH]1 | > 200 µM | 2 |  |  | MIC [9]: 8 µg/mL |
| Nc1nc(-c2ccc(NC(=O)c3ccc(F)cc3)cc2)c[nH]1 | ≥ 200 µM |  |  |  |  |
| Nc1nc(-c2ccc(NC(=O)c3ccc(Cl)cc3)cc2)c[nH]1 | ≥ 200 µM |  | 4 µM | 16 µM |  |
| Cl.Nc1ncc(-c2ccc(NC(=O)c3ccc(Cl)cc3Cl)cc2)[nH]1 | ≥ 200 µM | 8 |  |  |  |

| Compound | MIC [1] | fold change (FC) [2] | MIC [3] | MIC [4] | further results |
| --- | --- | --- | --- | --- | --- |
| Nc1ncc(-c2ccc(NC(=O)c3ccc(Br)cc3F)cc2)[nH]1 | ≥ 200 µM |  | 16 µM | 32 µM | Activity [13]: inactive |
| Cc1ccc(C(=O)Nc2ccc(-c3c[nH]c(N)n3)cc2)cc1Cl | 25 µM |  |  |  | MIC [12]: 16 µM |
| Nc1nc(-c2ccc(NC(=O)c3cccc(Cl)c3)cc2)c[nH]1 | ≥ 200 µM |  | 4 µM | 16 µM |  |
| Cc1cc(NC(=O)c2cc(Cl)cc(Cl)c2)ccc1-c1c[nH]c(N)n1.Cl | > 200 µM | 64 | 0.5 µg/mL | 8 µg/mL | MIC [9]: 0.5 µg/mL; fold change (FC) [10]: 64; fold change (FC) [8]: 4 |
| Cl.Nc1nc(-c2ccc(NC(=O)c3cc(Br)cc(Br)c3)cc2F)c[nH]1 | > 200 µM | 16 | 8 µg/mL | 16 µg/mL | MIC [9]: 2 µg/mL; fold change (FC) [10]: 4; fold change (FC) [8]: 2 |
| Cc1ccc(C(=O)Nc2ccc(-c3c[nH]c(N)n3)cc2)cc1F | 50 µM |  |  | 1 µM | MIC [12]: 16 µM |
| Cl.Nc1nc(-c2ccc(NC(=O)c3ccc(C(F)(F)F)c(Cl)c3)cc2F)c[nH]1 | 50 µM |  |  | 8 µg/mL | MIC [5]: 16 µg/mL; fold change (FC) [6]: 2; MIC [7]: 0.25 µg/mL; fold change (FC) [8]: 4 |
| Cc1cc(C)cc(C(=O)Nc2ccc(-c3c[nH]c(N)n3)cc2)c1.Cl | ≥ 200 µM |  |  |  | MIC [9]: 2 µg/mL; Activity [13]: inactive |
| Nc1nc(-c2ccc(NC(=O)c3cc(Cl)c(Br)c(Cl)c3)cc2)c[nH]1 | ≥ 200 µM |  | 0.25 µM | 0.25 µM |  |
| Nc1ncc(-c2ccc(NC(=O)c3ccc(I)cc3)cc2)[nH]1 | ≥ 200 µM |  |  |  |  |
| Nc1nc(-c2ccc(NC(=O)c3c(Cl)cc(Cl)cc3Cl)cc2)c[nH]1 | 100 µM |  | 16 µM | 32 µM | MIC [14]: 8 µM |
| Nc1nc(-c2ccc(NC(=O)c3cccc(Br)c3)cc2)c[nH]1 | ≥ 200 µM |  |  |  |  |
| Nc1nc(-c2ccc(NC(=O)c3ccc(C(F)(F)F)cc3)cc2)c[nH]1 | ≥ 200 µM |  |  |  |  |
| Nc1nc(-c2ccc(NC(=O)c3cc(F)c(F)c(F)c3)cc2)c[nH]1 | 100 µM |  | 8 µM | 32 µM |  |
| Cl.Nc1ncc(-c2ccc(NC(=O)c3cc(F)cc(F)c3)cc2)[nH]1 | ≥ 200 µM | 8 |  |  | MIC [9]: 4 µg/mL |
| Nc1nc(-c2ccc(NC(=O)c3cccc(F)c3)cc2)c[nH]1 | ≥ 200 µM |  |  |  |  |
| Nc1ncc(-c2ccc(NC(=O)c3cccc(I)c3)cc2)[nH]1 | ≥ 200 µM |  |  |  |  |
| Cl.Nc1ncc(-c2ccc(NC(=O)c3cccc(Cl)c3Cl)cc2)[nH]1 | ≥ 200 µM | 4 |  |  |  |
| Cl.Nc1nc(-c2ccc(NC(=O)c3cc(C(F)(F)F)cc(C(F)(F)F)c3)cc2)c[nH]1 | 50 µM |  |  |  | MIC [7]: 8 µg/mL |

Reference: ChEMBL document CHEMBL4725412, “Augmenting the Activity of Macrolide Adjuvants against Acinetobacter baumannii” (2020)
